Test results from patent US20160278375A1, “BISCATIONIC AND TRISCATIONIC AMPHIPHILES AS ANTIMICROBIAL AGENTS” (Temple University of the Commonwealth System of Higher …, priority 2013, published 2016).
Like-named read-outs stand apart in the source and are kept apart here.

Columns and labels:
[1] = tested on: Pseudomonas aeruginosa (PAO1-WT); test: MIC determination by two-fold serial dilution in 96-well microtiter plates; format: cell-based
Experimental: (§1) For the compounds above, respective minimum inhibitory concentration (MIC) values against the Gram-positive S. aureus, E. faecalis, Gram-negative E. coli and P. aeruginosa were determined, respectively, by standard methods. […] Cell viability was verified by serial dilution and plating on MH agar. Both aqueous and fresh media positive controls were performed for each trial. Overnight bacterial cultures of Staphylococcus aureus (SH1000), Enterococcus faecalis (OG1RF), Escherichia coli (MC4100), and Pseudomonas aeruginosa (PAO1-WT) were grown in Mueller-Hinton broth at 37° C., with all but E. faecalis under shaking Overnight cultures were diluted to approximately 10^6 cfu/mL as determined by OD measurement at 640 nm and plating on MH agar.
(§2) Each compound was serially diluted two-fold with water from 1 mM down to 1 μM yielding twelve dilutions per compound. In triplicate, 100 µL of each dilution were pipetted into the appropriate well of a 96-well microtiter plate, and then […] of overnight bacterial culture diluted to ca. 10^6 cfu/mL were inoculated into each well. Microtiter plates were incubated at 37° C. for 72 hours. Up to seven compounds were tested against one bacterial species at twelve decreasing concentrations per 96-well plate.

[2] = tested on: Staphylococcus aureus (SH1000); test: as above; format: cell-based
Experimental: as §1, §2

[3] = tested on: Enterococcus faecalis (OG1RF); test: as above; format: cell-based
Experimental: as §1, §2

[4] = tested on: Escherichia coli (MC4100); test: as above; format: cell-based
Experimental: as §1, §2

[5] = tested on: S. aureus, E. faecalis, E. coli and P. aeruginosa; test: MIC determination, statements across the bacteria tested; format: cell-based
Experimental: as §1, §2

water solubility = format: physicochemical
[6] = Pseudomonas aeruginosa, PAO1, Table 1, 37° C., 72 hours, read-out: MIC, Gram negative P. aeruginosa
[7] = Staphylococcus aureus, Table 1, 37° C., 72 hours, read-out: MIC, Gram positive S. aureus
[8] = Enterococcus faecalis, Table 1, 37° C., 72 hours, read-out: MIC, Gram positive E. faecalis
[9] = Escherichia coli, Table 1, 37° C., 72 hours, read-out: MIC, Gram negative E. coli
[10] = Escherichia coli, 72 h, read-out: MIC, Gram negative E. coli
[11] = Table 1, 37° C., 72 hours, read-out: MIC, Gram negative E. coli

Molecule | MIC [1, 6] [µM] | MIC [2, 7] [µM] | MIC [3, 8] [µM] | MIC [4, 10] [µM] | other results
CCCCCCCCCCCCCCCCCCCC[N+](C)(C)CCN(C)C [(20, 2, 0)] | 125 | 4 | 4 |  | MIC [4, 9]: 63 µM
CCCCCCCCCCCC[N+](C)(C)CC[N+](C)(C)CCCCCCCCCCCC [(12, 2, 12)] | 4 | 1 | 1 | 2 | 
CCCCCCCCCC[N+](C)(C)CC[N+](C)(C)CCCCCCCC [(10, 2, 8)] | 125 | 8 | 63 | 63 | 
CCCCCCCCCCCCCCCCCCCC[N+](C)(C)CC[N+](C)(C)CCCCCCCCCCCC [(20, 2, 12)] | 63 | 8 | 4 | 32 | 
CCCCCCCCCCCCCCCCCC[N+](C)(C)CC[N+](C)(C)CCCCCCCCCCCCCCCC [(18, 2, 16)] | 63 | 16 | 32 | 32 | 
N-alkyl-N-benzyl-N,N-dimethylammonium chloride [benzalkonium chloride, reference compound] |  |  |  |  | MIC ([1]; Table 1, 37° C., 72 hours, read-out: MIC, Gram negative P. aeruginosa): 63 µM; MIC ([2]; Table 1, 37° C., 72 hours, read-out: MIC, Gram positive S. aureus): 8 µM; MIC ([3]; Table 1, 37° C., 72 hours, read-out: MIC, Gram positive E. faecalis): 8 µM; MIC [4, 11]: 32 µM; fold less activity ([5]; compared with compound (12,2,10)): 4-32 fold
CCCCCCCCCC[N+](C)(C)CC[N+](C)(C)CCCCCCCCCC [(10, 2, 10)] | 8 | 2 | 8 | 16 | 
CCCCCCCCCCCC[N+](C)(C)CC[N+](C)(C)CCCCCCCCCC [(12, 2, 10)] | 2 | 1 | 2 | 2 | 
CCCCCCCCCCCCCCCCCC[N+](C)(C)CCN(C)C.[Br-] [Compound (18, 2, 0)] | 63 |  |  |  | MIC [4, 11]: 63 µM; MIC ([5]; S. aureus and E. faecalis, read-out: MIC values versus Gram positive bacteria): 2 to 4 µM
CCCCCCCCCCCCCCCC[N+](C)(C)CC[N+](C)(C)CCCCCCCC [(16, 2, 8)] | 4 | 2 | 2 | 2 | 
CCCCCCCCCCCCCC[N+](C)(C)CC[N+](C)(C)CCCCCCCCCC [(14, 2, 10)] | 4 | 4 | 1 | 2 | 
CCCCCCCCCCCCCCCCCCCC[N+](C)(C)CC[N+](C)(C)CCCCCCCC [Compound (20, 2, 8)] |  |  |  |  | water solubility (water solubility): fully water soluble
CCCCCCCCCCCCCC[N+](C)(C)CC[N+](C)(C)CCCCCCCC [(14, 2, 8)] | 4 | 1 | 2 | 2 | 
CCCCCCCCCCCCCC[N+](C)(C)CCN(C)CC[N+](C)(C)CCCCCCCCCCCCCC [14, 2, 0, 2, 14] |  |  |  |  | MIC ([1]; Pseudomonas aeruginosa, PAO1, Table 2, trisamine compounds, read-out: MIC P aeruginosa): 32 µM; MIC ([2]; Staphylococcus aureus, Table 2, trisamine compounds, read-out: MIC S. aureus): 2 µM; MIC ([3]; Enterococcus faecalis, Table 2, trisamine compounds, read-out: MIC E faecalis): 2 µM; MIC ([4]; Escherichia coli, read-out: MIC E. coli): 4 µM
CCCCCCCCCC[N+](C)(C)CCN(C)C [(10, 2, 0)] | 250 | 63 | 250 |  | MIC [4, 9]: 250 µM
CCCCCCCCCCCCCC[N+](C)(C)CC[N+](C)(C)CCCCCCCCCCCC [(14, 2, 12)] | 8 | 1 | 2 | 2 | 
CCCCCCCCCCCC[N+](C)(C)CCN(C)C [(12, 2, 0)] | 250 | 32 | 63 |  | MIC [4, 9]: 63 µM
CCCCCCCCCCCCCCCCCC[N+](C)(C)CC[N+](C)(C)CCCCCCCC [(18, 2, 8)] | 32 | 2 | 2 | 8 | 
CCCCCCCCCCCCCCCCCC[N+](C)(C)CC[N+](C)(C)CCCCCCCCCCCC [(18, 2, 12)] | 32 | 4 | 4 | 16 | 
CCCCCCCCCCCCCCCC[N+](C)(C)CC[N+](C)(C)CCCCCCCCCCCC [(16, 2, 12)] | 32 | 8 | 4 | 8 | 
CCCCCCCCCCCCCCCCCCCC[N+](C)(C)CC[N+](C)(C)CCCCCCCC [(20, 2, 8)] | 32 | 4 | 4 | 16 | 
